In US20250345311A1, “CONJUGATE OF POLYPEPTIDE AND SMALL MOLECULE TARGETING KRAS AND ANTI-CANCER APPLICATION THEREOF” (Guangzhou Medical University, priority 2024, published 2025):
Read-outs that look alike come from different tables or passages of the source. Each block holds one compound with its values, some of them ahead of it.

How the values were obtained:
Assay type in all cases: cell-based
H358 cells [1] = test: cells
Experimental: The cytotoxicity of HGPF, cyclic peptide (CLYDVAGSDKYCGP), FN1-8, and FN1-8 methylamino derivative (FN1-8-CH2-NH2) was detected through CCK8 experiment. The cyclic peptide (CLYDVAGSDKYCGP) has a sequence shown in SEQ ID NO: 4, and it is Cys-Leu-Tyr-Asp-Val-Ala-Gly-Ser-Asp Lys-Tyr-Cys-Gly-Pro. The experimental steps are as follows:
8.1 Plate laying: Inoculate H358 cells in logarithmic growth phase into a 96-well plate (100 μl/well), with 6 replicate wells per group and a cell count of 5×10^3 cells per well, then place and culture in a 37° C., 5% CO2 incubator for 12 hours.
8.2 Use different concentrations of HGPF, HGPF+FAPα, cyclic peptides, FN1-8, and FN1-8-CH2-NH2 to treat with the experimental group. First, prepare the above drugs into a 100 mM mother solution, and then set […], namely 100 μM, 50 μM, 25 μM, 12.5 μM, 6.25 μM, 3.125 μM, 1.5625 μM, and 0.78125 μM, wherein the HGPF+FAPα group was the group added FAPα (1 μM) after adding the above concentrations of HGPF to simulate the tumor tissue microenvironment.
8.3 After 24 hours, wash the cells twice with PBS, then add 100 μL of pre-mixed CCK8 solution (culture medium:CCK8 working solution=9:1) to each well, and then continue to culture in a 37° C., 5% CO2 incubator for 2 hours.
8.4 Use a microplate reader to measure the absorbance D (2) of each well at a wavelength of 450 nm. Analyze the D (2) values of the blank group, the control group, and the experimental group to determine cellular activity. The cell survival rate reflects the cytotoxicity of drugs. The groups are as follows: • Experimental group (culture medium containing cells, CCK-8, test drug) • Control group (culture medium containing cells, CCK-8, without test drug) • Blank group (culture medium without cells and test substance, containing CCK-8)

[2] = tested on: lung cancer cell line H358 (carrying KRAS G12C mutation); test: Uptake of HGP-FITC by lung cancer cells, flow cytometry; settings: different concentrations, 8 hours
Experimental: 6.2 Incubate lung cancer cell line H358 (carrying KRAS G12C mutation) with different concentrations of HGP-FITC, and detect by flow cytometry after 8 hours.

KRAS G12C = biological target: T1, KRAS G12C (Homo sapiens, UniProt P01116, G12C); test: Specificity of HGP-FITC targeting KRAS G12C (pre-blocking, flow cytometry); settings: then 25 μM HGP-FITC, 8 hours
T1 construct: endogenous in cells; host or cells: H358 lung cancer cells
T1 sequence (P01116 1-188 isoform P01116-2 G12C): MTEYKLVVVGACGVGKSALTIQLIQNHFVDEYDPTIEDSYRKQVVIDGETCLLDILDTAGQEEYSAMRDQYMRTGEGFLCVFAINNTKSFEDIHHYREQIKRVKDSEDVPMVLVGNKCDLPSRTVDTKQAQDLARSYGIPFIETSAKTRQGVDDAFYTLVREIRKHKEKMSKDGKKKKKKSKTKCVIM
Experimental: 6.3 Based on the flow cytometry results, select a concentration of 25 μM for subsequent experiments. The lung cancer cell line H358 (carrying KRAS G12C mutation) was first blocked with 1:1000 KRAS antibody or 10 μM Sotorasib (KRAS G12C inhibitor) for 24 hours, and then incubated with 25 μM HGP-FITC. Fluorescence uptake was detected by flow cytometry after 8 hours.

H358 cells [3] = test: Scratch test, proliferation and migration of lung cancer cells; settings: H358, 10 μM, 24 hours
Experimental: The inhibitory effects of the conjugate HGPF and cyclic peptide (CLYDVAGSDKYCGP) on the proliferation and migration of lung cancer cells were detected by scratch test. The experimental steps are as follows:
9.1 Plate laying: First, mark 3 positioning lines at the bottom of the 6-well plate, then inoculate H358 cells in logarithmic growth phase onto the 6-well plate (2 ml/well), with a cell count of 1×10^6 per well, and then culture in a 37° C., 5% CO2 incubator for 24 hours.
9.2 Marking: Place the plate cover above the 6-well plate, use a 100μ pipettor tip to draw 3 straight lines vertically for each hole; then wash 4 times with PBS to wash away floating cell debris.
9.3 Administration: Replace the culture medium with a medium containing 2% serum, administer 10 μM of the drug to each group, take photos at 0 and 24 hours, observe scratch healing, and analyze with ImageJ software.

SMILES: O=C(NCc1ccc(O)cc1)C1C(c2ccccc2)=NN(c2ccccc2)C1c1ccccc1 (stereo not drawn) [FN1-8, reference compound]
cytotoxicity against lung cancer cells (H358 cells [1]): good cytotoxicity | effect of further increasing the concentration on cell viability (H358 cells [1]; H358, 24 hours, up to 100 μM): cannot achieve the effect of completely inhibiting cell viability | IC50 (H358 cells [1]; Homo sapiens, NCI-H358, 24 h): 4.34 µM

SMILES: NCc1ccc(CNC(=O)C2C(c3ccccc3)=NN(c3ccccc3)C2c2ccccc2)cc1 (stereo not drawn) [FN1-8-CH2-NH2]
cytotoxicity against lung cancer cells (H358 cells [1]): good cytotoxicity | inhibition at 100 µM (H358 cells [1]; Homo sapiens, NCI-H358, 100 μM, 24 hours, read-out: inhibition rate on H358 cells): 100% | IC50 (H358 cells [1]; Homo sapiens, NCI-H358, H358, 24 hours, CCK8, read-out: IC50): 4.68 µM

SMILES: CC(C)C[C@@H]1NC(=O)[C@@H](N)CSSC[C@@H](C(=O)NCC(=O)N2CCC[C@H]2C(=O)O)NC(=O)[C@H](Cc2ccc(O)cc2)NC(=O)[C@H](CCCCN)NC(=O)[C@H](CC(=O)O)NC(=O)[C@H](CO)NC(=O)CNC(=O)[C@H](C)NC(=O)[C@H](C(C)C)NC(=O)[C@H](CC(=O)O)NC(=O)[C@H](Cc2ccc(O)cc2)NC1=O [cyclic peptide, Cys-Leu-Tyr-Asp-Val-Ala-Gly-Ser-Asp Lys-Tyr-Cys-Gly-Pro]
cytotoxicity against lung cancer cells (H358 cells [1]): weak cytotoxicity | inhibitory effect on proliferation and migration of tumor cells (H358 cells [3]; without FAPα): no inhibitory effect

Second part, led by results:

uptake of HGP-FITC by H358 cells after pre-block with Sotorasib (KRAS G12C; 10 μM Sotorasib 24 hours): significantly reduced | uptake of HGP-FITC by H358 cells after pre-block with KRAS antibody (KRAS G12C; 1:1000 KRAS antibody 24 hours): significantly reduced
SMILES: CC(C)C[C@@H]1NC(=O)[C@@H](N)CSSC[C@@H](C(=O)NCC(=O)N2CCC[C@H]2C(=O)NCCCCC(NC(=S)Nc2ccc3c(c2)C(=O)OC32c3ccc(O)cc3Oc3cc(O)ccc32)C(=O)O)NC(=O)[C@H](Cc2ccc(O)cc2)NC(=O)[C@H](CCCCN)NC(=O)[C@H](CC(=O)O)NC(=O)[C@H](CO)NC(=O)CNC(=O)[C@H](C)NC(=O)[C@H](C(C)C)NC(=O)[C@H](CC(=O)O)NC(=O)[C@H](Cc2ccc(O)cc2)NC1=O (stereo partly drawn) [HGP-FITC]
uptake of HGP-FITC by H358 cells [2]: concentration dependent manner

IC50 (H358 cells [1]; 24 h): 3.66 µM
SMILES: CC(C)C[C@@H]1NC(=O)[C@@H](N)CSSC[C@@H](C(=O)NCC(=O)N2CCC[C@H]2C(=O)NCc2ccc(CNC(=O)C3C(c4ccccc4)C(c4ccccc4)=NN3c3ccccc3)cc2)NC(=O)[C@H](Cc2ccc(O)cc2)NC(=O)[C@H](CCCCN)NC(=O)[C@H](CC(=O)O)NC(=O)[C@H](CO)NC(=O)CNC(=O)[C@H](C)NC(=O)[C@H](C(C)C)NC(=O)[C@H](CC(=O)O)NC(=O)[C@H](Cc2ccc(O)cc2)NC1=O (stereo partly drawn) [HGPF]
cytotoxicity against lung cancer cells (H358 cells [1]): weak cytotoxicity | inhibitory effect on proliferation and migration of tumor cells (H358 cells [3]; with FAPα): significantly inhibited | inhibitory effect on proliferation and migration of tumor cells (H358 cells [3]; without FAPα): no inhibitory effect
